Data published in EP0998480B1, “NUCLEOTIDE ANALOG COMPOSITION AND SYNTHESIS METHOD” (GILEAD SCIENCES, INC., priority 1997, dated 1999).

Key:
[1] = hygroscopicity at 92% relative humidity; assay type: physicochemical; details: crystals kept at 92% relative humidity and room temperature for up to 37 days
[2] = solid state chemical stability on storage at elevated temperature and relative humidity; assay type: physicochemical; details: for BPPF% / mono(POC) PMPA fumarate%: 75% relative humidity, 0 days; for mono(POC) PMPA fumarate%: degradation product in stored BPPF
Text: The solid state chemical stability of cBPPF and bis(POC)PMPA•citrate salt was compared by analyzing each compound after storage under different conditions.

[3] = human, in vivo

In the case of “9-[2-(R)-[[Bis[[(isopropoxycarbonyl)oxy]methoxy]phosphinoyl]methoxy]propyl]adenine• fumaric acid [BPPF]”, the hygroscopicity [1] is reported as “not hygroscopic”, the BPPF% ([2]; 40°C) is reported as 99.0% and the “mono(POC) PMPA fumarate%” value ([2]; 40°C) is reported as 1.0%. For the same substance, the BPPF% ([2]; 60°C) was 99.0%, the “mono(POC) PMPA fumarate%” value ([2]; 60°C) was 1.0% and the “solid state chemical stability compared with bis(POC)PMPA citrate salt” value ([2]; powder, storage at elevated temperature and relative humidity) was “more stable”. For the same substance, the oral bioavailability [3] was 30-40%.
